The text below walks through data of patent US20250332300A1 (priority 2024, published 2025).

Positions of bridges follow the written chain, without caps; N, C: chain ends. Non-standard residues stand in square brackets, D forms with d. *: point of attachment. X4 = 4‑(carboxymethyl)piperazine‑1‑carbonyl, O=C(O)CN1CCN(C(=O)*)CC1; DOTA = O=C(O)CN1CCN(CC(=O)O)CCN(CC(=O)*)CCN(CC(=O)O)CC1; Trp(5-OH) = N[C@@H](Cc1c[nH]c2ccc(O)cc12)C(=O)O; NMePhe(4-F) = CN[C@@H](Cc1ccc(F)cc1)C(=O)O; NMehPhe = CN[C@@H](CCc1ccccc1)C(=O)O; Aad = N[C@@H](CCCC(=O)O)C(=O)O; aThr = C[C@H](O)[C@H](N)C(=O)O; NMeK = CN[C@@H](CCCCN)C(=O)O; NMeDap = CN[C@@H](CN)C(=O)O; NMeC = CN[C@@H](CS)C(=O)O; NMeS = CN[C@@H](CO)C(=O)O; CproG = not defined here; Dap = NC[C@H](N)C(=O)O

In general, Kd refers to the constant that tells how readily two partners part at equilibrium. By IC50 is commonly meant the concentration that gives 50% inhibition.

Data set [1] is classed as physicochemical. As for the experimental part: Radio-HPLC Analytical Method: Eluent A: Water+0.1% TFA; Eluent B: ACN+0.1% TFA; Column temperature: 25° C.; Flow: 1.0 mL/min; Column: […] Gradient: hold 10% B for 1 min, from 10 to 80% B in 8 min, hold 80% B for 2 min, from 80 to 15% B in 1 min. The initial radiochemical purity of [^68Ga]Ga-labeled compounds was analyzed by radio-HPLC and the stability in solution at 24° C. was evaluated 4 h after the end of synthesis by radio-HPLC.

The subject of data set [2] is subcutaneous JimT1 tumors. More on the design: species or system Nu (NCr)-Foxnlnu-homozygous mice. The note with it: mouse, in vivo, iv. As for the experimental part: Biodistribution studies were performed at Minerva Imaging. All animal experimentation was carried out under a license approved by the National Animal Experiments Inspectorate under the Ministry of Environment and Food of Denmark, and further approved by the Novartis Animal Welfare Office. Biodistribution studies were performed in Nu (NCr)-Foxnlnu-homozygous mice bearing subcutaneous JimT1 tumors. Mice were subcutaneously implanted with 2×10^6 JimT1 cells into right flank. The biodistribution studies were typically performed when tumors were approximately 200 mm^3 in volume. Compounds according to Examples H1 and H2 were prepared as described in the radiochemistry part (Section 9). Animals were single dose administered with an activity concentration of 4 MBq/nmol per animal. The biodistribution of the compounds was assessed using conventional ex vivo biodistribution at different time points (1, 4, 24 and 72 hrs) after intravenous injection of Lu-177 labelled compounds. Mice were euthanized and organs were collected, weighed, and placed inside counting vials. Organ uptake was assessed by gamma counting using an automated gamma counter for 60 seconds immediately after tissue collection. Tissue counts and injected doses for individual animals were decay-corrected to the time of injection. […] Results expressed as a percentage of injected dose per gram of the tissue (% ID/g).

Another data set addresses human EGFR (Homo sapiens, UniProt P00533). As to the kind of experiment: SPR selectivity over close protein homologs, EGFR. In kind it is binding. The note with it: protein homolog immobilized on a CM5 chip.
The target in the next data set is human HER3 (Homo sapiens, UniProt P21860). As to the kind of experiment: SPR selectivity over close protein homologs, HER3. In kind it is binding. The note with it: protein homolog immobilized on a CM5 chip.
Chain of human HER3 (P21860 20-1342): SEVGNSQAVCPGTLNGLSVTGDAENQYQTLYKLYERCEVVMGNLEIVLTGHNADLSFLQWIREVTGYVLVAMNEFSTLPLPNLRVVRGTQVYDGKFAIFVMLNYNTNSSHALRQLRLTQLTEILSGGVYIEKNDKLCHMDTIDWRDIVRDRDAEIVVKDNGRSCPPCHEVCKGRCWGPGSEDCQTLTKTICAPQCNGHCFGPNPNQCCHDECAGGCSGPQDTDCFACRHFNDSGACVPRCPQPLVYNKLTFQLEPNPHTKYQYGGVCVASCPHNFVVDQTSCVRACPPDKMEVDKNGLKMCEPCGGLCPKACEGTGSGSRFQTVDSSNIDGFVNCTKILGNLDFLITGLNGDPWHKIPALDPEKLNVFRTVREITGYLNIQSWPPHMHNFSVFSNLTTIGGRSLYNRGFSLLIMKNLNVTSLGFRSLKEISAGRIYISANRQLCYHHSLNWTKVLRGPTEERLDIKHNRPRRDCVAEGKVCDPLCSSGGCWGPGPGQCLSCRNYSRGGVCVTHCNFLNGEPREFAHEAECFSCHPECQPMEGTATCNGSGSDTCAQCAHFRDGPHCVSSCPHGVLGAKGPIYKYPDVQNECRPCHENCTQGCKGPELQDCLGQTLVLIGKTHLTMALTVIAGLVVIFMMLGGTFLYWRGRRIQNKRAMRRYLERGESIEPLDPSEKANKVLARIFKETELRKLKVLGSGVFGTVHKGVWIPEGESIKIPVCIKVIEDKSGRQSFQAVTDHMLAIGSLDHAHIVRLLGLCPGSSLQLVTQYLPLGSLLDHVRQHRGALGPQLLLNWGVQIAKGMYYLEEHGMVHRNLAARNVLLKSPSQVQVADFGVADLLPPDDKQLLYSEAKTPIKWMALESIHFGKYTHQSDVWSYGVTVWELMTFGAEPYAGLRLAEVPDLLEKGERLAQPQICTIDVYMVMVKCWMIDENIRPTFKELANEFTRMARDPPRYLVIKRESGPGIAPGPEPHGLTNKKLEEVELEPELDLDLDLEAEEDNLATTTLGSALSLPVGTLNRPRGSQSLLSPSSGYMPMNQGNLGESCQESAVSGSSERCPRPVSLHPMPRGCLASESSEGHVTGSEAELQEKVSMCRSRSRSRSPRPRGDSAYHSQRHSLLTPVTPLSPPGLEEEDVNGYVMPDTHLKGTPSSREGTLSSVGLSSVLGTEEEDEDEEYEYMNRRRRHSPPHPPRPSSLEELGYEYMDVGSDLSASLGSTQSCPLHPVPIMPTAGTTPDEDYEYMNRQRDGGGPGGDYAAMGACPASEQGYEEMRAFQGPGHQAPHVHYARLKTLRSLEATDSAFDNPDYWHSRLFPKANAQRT
Data set [3] deals with T1, human HER2 (23-652) (Homo sapiens, UniProt P04626). Put plainly: Surface plasmon resonance (SPR) for assessment of peptide affinity, human HER2. Also on record: towards human HER2 (23-652) and mouse HER2 (23-653); made in house. The note with it: SPR, human HER2 extracellular domain, 25° C., 1:1 binding model; read-out: huHER2-SPR-ONC KD. In kind it is binding. In a few lines:
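Binding kinetics fitted from sensorgrams with 280 s peptide association then 3000 s dissociation (30 uL/min), using HER2 (23-652) either directly immobilized (SA/CM5) or anti-Fc-captured; 3 M magnesium chloride used for regeneration.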
A general note: Surface plasmon resonance follows binding to a sensor surface in real time, without labels.

Data set [4] has as its target T1, human HER2 (23-652). As to the kind of experiment: TR-FRET competition assay for peptide potency, human HER2. In kind it is binding. Also on record: towards human HER2 (23-652) and mouse HER2 (23-653); made in house; host or cells: mammalian cells. The following applies: read-out: huHER2 TR-FRET IC50. On the technique in general: In TR-FRET formats the signal depends on donor and acceptor labels being close together.

A further data set deals with human HER4 (Homo sapiens, UniProt Q15303). As to the kind of experiment: SPR selectivity over close protein homologs, HER4. In kind it is binding. The note with it: protein homolog immobilized on a CM5 chip.
Chain of human HER4 (Q15303 26-1308): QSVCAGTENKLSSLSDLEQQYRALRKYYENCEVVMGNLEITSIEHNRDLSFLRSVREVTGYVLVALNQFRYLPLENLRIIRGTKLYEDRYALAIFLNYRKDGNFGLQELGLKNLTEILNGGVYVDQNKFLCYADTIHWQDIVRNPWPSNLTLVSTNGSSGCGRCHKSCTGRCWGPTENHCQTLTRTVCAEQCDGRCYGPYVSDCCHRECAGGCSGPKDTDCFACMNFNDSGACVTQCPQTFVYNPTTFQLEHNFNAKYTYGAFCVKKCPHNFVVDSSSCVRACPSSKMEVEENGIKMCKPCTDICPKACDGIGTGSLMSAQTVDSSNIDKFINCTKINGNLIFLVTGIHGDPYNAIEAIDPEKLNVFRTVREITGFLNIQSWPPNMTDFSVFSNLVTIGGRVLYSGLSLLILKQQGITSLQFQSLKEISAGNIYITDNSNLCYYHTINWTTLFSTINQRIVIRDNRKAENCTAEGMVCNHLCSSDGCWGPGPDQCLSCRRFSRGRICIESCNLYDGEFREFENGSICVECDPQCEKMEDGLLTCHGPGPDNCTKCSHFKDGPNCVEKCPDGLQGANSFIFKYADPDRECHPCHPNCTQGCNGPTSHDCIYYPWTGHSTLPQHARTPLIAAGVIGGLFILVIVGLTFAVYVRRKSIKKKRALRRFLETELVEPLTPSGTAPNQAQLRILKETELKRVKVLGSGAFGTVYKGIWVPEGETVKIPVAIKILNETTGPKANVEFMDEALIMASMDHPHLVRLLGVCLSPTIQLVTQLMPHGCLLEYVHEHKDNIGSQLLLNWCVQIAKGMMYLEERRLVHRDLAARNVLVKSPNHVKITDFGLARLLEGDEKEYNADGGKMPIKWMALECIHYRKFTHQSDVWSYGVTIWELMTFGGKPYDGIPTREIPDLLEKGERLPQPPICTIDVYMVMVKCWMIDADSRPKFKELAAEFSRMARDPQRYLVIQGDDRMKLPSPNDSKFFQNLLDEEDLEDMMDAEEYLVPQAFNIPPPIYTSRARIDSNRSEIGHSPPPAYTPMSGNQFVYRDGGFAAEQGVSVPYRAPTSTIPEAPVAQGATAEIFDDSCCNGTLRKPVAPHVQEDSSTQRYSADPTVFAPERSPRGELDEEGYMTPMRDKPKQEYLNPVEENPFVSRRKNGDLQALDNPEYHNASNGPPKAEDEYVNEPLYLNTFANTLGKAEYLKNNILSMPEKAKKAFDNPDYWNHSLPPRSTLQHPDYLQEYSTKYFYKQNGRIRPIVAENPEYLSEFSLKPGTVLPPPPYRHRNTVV
In data set [5] the target is human Herstatin (a soluble truncated HER2 protein) (Homo sapiens, UniProt P04626). Put plainly: SPR selectivity over close protein homologs, Herstatin. In kind it is binding. The following applies: protein homolog immobilized on a CM5 chip.
Data set [6] concerns the target T2, mouse HER2 (23-653) (Mus musculus, UniProt P70424). Put plainly: Surface plasmon resonance (SPR) for assessment of peptide affinity, mouse HER2. In kind it is binding. More on the design: mouse HER2 (23-653) using a Cy5 labeled peptide as a probe; made in house. The note with it: SPR, mouse HER2 extracellular domain, 25° C., 1:1 binding model; read-out: moHER2-SPR-ONC KD. The text has this: Each protein was immobilized either onto a SA sensorchip (Cytiva, BR-1005-31) or CM5 sensorchip (Cytiva, BR-1005-30) to a density of 800-2000 RU.
Target sequence in this assay (P70424 23-653): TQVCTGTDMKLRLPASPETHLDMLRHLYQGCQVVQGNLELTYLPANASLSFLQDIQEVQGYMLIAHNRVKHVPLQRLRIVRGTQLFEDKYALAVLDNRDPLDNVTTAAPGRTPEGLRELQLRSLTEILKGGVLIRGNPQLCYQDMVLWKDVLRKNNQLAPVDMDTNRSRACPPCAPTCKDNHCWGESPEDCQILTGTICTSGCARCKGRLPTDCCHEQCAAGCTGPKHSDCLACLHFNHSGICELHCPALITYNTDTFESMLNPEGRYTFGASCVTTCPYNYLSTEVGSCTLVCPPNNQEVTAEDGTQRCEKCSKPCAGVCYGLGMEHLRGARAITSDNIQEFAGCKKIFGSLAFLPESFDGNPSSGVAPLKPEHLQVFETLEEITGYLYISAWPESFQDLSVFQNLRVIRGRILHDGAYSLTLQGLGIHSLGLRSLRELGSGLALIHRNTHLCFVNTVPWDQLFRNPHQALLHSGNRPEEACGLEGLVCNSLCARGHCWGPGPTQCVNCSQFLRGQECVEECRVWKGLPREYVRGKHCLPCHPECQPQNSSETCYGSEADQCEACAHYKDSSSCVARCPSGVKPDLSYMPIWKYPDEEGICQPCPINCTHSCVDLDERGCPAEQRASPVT

Data set [7] has as its target T2, mouse HER2 (23-653). Put plainly: TR-FRET competition assay for peptide potency, mouse HER2. In kind it is binding. Also on record: mouse HER2 (23-653) using a Cy5 labeled peptide as a probe; made in house; host or cells: mammalian cells. The following applies: TR-FRET competition with Cy5 labeled peptide probe, 0.1 nM mouse HER2, 24 h incubation; read-out: moHER2 TR-FRET IC50.

Data set [8] concerns the target human HER2 (23-652), biotinylated, His tag, Avi tag (human) (UniProt P04626). As to the kind of experiment: TR-FRET competition vs Cy5 peptide probe; TR-FRET competition, IC50.
For data set [9], the target named is T3, mouse HER2 (23-653), biotinylated, His tag, Avi tag (mouse, UniProt P70424 23-653, biotin (Avi tag)).
T3 construct: range 23-653; in-house protein expressed in mammalian cells; also called moHER2; not shown: His tag and Avi tag, said to be at the N-terminus for the TR-FRET protein
T3 sequence (P70424 23-653 limits assumed): as the sequence (P70424 23-653) above
Put plainly: SPR, HER2 on chip, 25 C.

In data set [10] the target is T4, human HER2 (23-652), biotinylated, His tag, Avi tag (human, UniProt P04626 23-652, biotin (Avi tag)).
T4 construct: range 23-652; TR-FRET used the in-house 23-652 protein; also called huHER2; human epidermal growth factor receptor 2; not shown: His tag and Avi tag, said to be at the N-terminus for the TR-FRET protein
Put plainly: SPR, HER2 on chip, 25 C.

The target of data set [11] is T3, mouse HER2 (23-653), biotinylated, His …. Put plainly: TR-FRET competition vs Cy5 peptide probe.
Data set [12] has as its target T4, human HER2 (23-652), biotinylated, His …. As to the kind of experiment: TR-FRET competition vs Cy5 peptide probe.
Data set [13] concerns the target mouse HER2 (23-653), biotinylated, His tag, Avi tag (mouse) (UniProt P70424). As to the kind of experiment: SPR, HER2 on chip, 25 C.

Chain of human EGFR (P00533 25-1210): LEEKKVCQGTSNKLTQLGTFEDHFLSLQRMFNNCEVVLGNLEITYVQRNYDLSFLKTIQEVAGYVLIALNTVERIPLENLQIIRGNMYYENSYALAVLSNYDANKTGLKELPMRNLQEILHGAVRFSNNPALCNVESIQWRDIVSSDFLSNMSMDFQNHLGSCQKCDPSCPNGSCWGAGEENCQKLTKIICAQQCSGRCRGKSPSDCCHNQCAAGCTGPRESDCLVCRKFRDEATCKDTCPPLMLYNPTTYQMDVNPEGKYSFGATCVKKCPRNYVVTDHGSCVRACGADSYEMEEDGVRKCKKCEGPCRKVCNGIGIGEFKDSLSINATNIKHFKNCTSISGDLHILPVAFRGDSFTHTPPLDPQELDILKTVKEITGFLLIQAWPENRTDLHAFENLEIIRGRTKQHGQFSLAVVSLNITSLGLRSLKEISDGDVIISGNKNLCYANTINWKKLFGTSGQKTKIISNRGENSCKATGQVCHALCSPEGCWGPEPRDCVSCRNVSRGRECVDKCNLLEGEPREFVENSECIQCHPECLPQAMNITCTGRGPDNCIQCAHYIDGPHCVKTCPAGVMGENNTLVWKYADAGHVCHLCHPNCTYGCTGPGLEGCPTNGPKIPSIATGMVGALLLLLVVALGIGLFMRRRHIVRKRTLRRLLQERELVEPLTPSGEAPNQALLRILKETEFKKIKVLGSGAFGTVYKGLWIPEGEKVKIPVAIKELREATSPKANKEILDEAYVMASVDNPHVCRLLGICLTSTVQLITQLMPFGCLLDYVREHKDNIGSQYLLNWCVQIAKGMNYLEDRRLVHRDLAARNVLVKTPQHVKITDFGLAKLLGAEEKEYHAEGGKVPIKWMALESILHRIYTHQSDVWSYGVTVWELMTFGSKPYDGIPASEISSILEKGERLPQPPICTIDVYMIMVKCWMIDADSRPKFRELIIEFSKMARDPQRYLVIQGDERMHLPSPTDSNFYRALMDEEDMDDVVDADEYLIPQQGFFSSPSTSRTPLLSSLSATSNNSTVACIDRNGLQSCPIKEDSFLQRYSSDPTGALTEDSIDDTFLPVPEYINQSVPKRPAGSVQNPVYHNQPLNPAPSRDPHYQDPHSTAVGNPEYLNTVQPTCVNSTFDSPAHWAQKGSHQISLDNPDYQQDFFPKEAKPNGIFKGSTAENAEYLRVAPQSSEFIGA
Chain of mouse HER2 (23-653), biotinylated, His tag, Avi tag (mouse) (P70424 23-653 limits assumed): as the sequence (P70424 23-653) above

On to `CC(=O)NCCCC[C@H]1C(=O)N[C@@H](Cc2c[nH]c3ccc(O)cc23)C(=O)N[C@@H](Cc2c[nH]c3ccccc23)C(=O)N[C@@H](C2CC2)C(=O)N(C)[C@H](C(=O)N(C)[C@@H](Cc2ccc(F)cc2)C(=O)N[C@@H](CCCCNC(=O)CN2CCN(CC(=O)O)CCN(CC(=O)O)CCN(CC(=O)O)CC2)C(N)=O)CNC(=O)CCC[C@H](NC(C)=O)C(=O)N[C@@H](Cc2ccc(O)cc2)C(=O)N[C@@H](CO)C(=O)N(C)[C@@H](CCc2ccccc2)C(=O)N1C` [Example I2, Example B1 labelled with ^68Ga, metal not drawn], for which the “Radiochemical purity by radio-HPLC, stability in solution, 4 h” value in data set [1] is given as 97.2%.

Take `COCCOCCOCCOCCOCCOCCOCCOCCOCCOCCOCCOCCC(=O)N[C@H]1CCCC(=O)NC[C@@H](C(=O)N(C)[C@@H](Cc2ccc(F)cc2)C(=O)N[C@@H](CCCCNC(=O)CN2CCN(CC(=O)O)CCN(CC(=O)O)CCN(CC(=O)O)CC2)C(N)=O)N(C)C(=O)[C@H](C2CC2)NC(=O)[C@H](Cc2c[nH]c3ccccc23)NC(=O)[C@H](Cc2c[nH]c3ccc(O)cc23)NC(=O)[C@H](CCCCNC(C)=O)N(C)C(=O)[C@H](CCc2ccccc2)N(C)C(=O)[C@H](CO)NC(=O)[C@H](Cc2ccc(O)cc2)NC1=O` [Example H1, Example B2 labelled with ^177Lu, metal not drawn]: in data set [2], the tumor/normal tissue ratios entry was “favorable tumor/normal tissue ratios”.

For `CC(=O)NCCCC[C@H]1C(=O)N[C@@H](Cc2c[nH]c3ccc(O)cc23)C(=O)N[C@@H](Cc2c[nH]c3ccccc23)C(=O)N[C@@H](C2CC2)C(=O)N(C)[C@H](C(=O)N(C)[C@@H](Cc2ccc(F)cc2)C(=O)N[C@@H](CCCCNC(=O)CN2CCN(CC(=O)O)CCN(CC(=O)O)CCN(CC(=O)O)CC2)C(N)=O)CNC(=O)CCC[C@H](NC(C)=O)C(=O)N[C@H](Cc2ccc(O)cc2)C(=O)N[C@H](CO)C(=O)N(C)[C@@H](CCc2ccccc2)C(=O)N1C` [Example B4], the equilibrium dissociation constant (Kd) (at human EGFR; on human HER3; at human HER2 (23-652) [3]; at human HER4; in data set [5]; at mouse HER2 (23-653) [6]) was above 6 µM in each case. Further, the IC50 on human HER2 (23-652) [4] and at mouse HER2 (23-653) [7] was above 1 µM in each case.

In the case of `COCCOCCOCCOCCOCCOCCOCCOCCOCCOCCOCCOCCC(=O)N[C@H]1CCCC(=O)NC[C@@H](C(=O)N(C)[C@@H](Cc2ccc(F)cc2)C(=O)N[C@@H](CCCCNC(=O)CN2CCN(CC(=O)O)CCN(CC(=O)O)CCN(CC(=O)O)CC2)C(N)=O)N(C)C(=O)[C@H](C2CC2)NC(=O)[C@H](Cc2c[nH]c3ccccc23)NC(=O)[C@H](Cc2c[nH]c3ccc(O)cc23)NC(=O)[C@H](CCCCNC(C)=O)N(C)C(=O)[C@H](CCc2ccccc2)N(C)C(=O)[C@H](CO)NC(=O)[C@H](Cc2ccc(O)cc2)NC1=O` [Example I1, Example B2 labelled with ^68Ga, metal not drawn], the “Radiochemical purity by radio-HPLC, stability in solution, 4 h” value in [1] is reported as 97.2%.

Take `COCCOCCOCCOCCOCCOCCOCCOCCOCCOCCOCCOCCC(=O)N[C@H]1CCCC(=O)NC[C@@H](C(=O)N(C)[C@@H](Cc2ccc(F)cc2)C(=O)N[C@@H](CCCCNC(=O)CN2CCN(CC(=O)O)CCN(CC(=O)O)CCN(CC(=O)O)CC2)C(N)=O)N(C)C(=O)[C@H](C2CC2)NC(=O)[C@H](Cc2c[nH]c3ccccc23)NC(=O)[C@H](Cc2c[nH]c3ccc(O)cc23)NC(=O)[C@H](CCCCNC(C)=O)N(C)C(=O)[C@H](CCc2ccccc2)N(C)C(=O)[C@H](CO)NC(=O)[C@H](Cc2ccc(O)cc2)NC1=O` [Example B2]: the Kd on human EGFR was above 6 µM; at human HER3 it was above 6 µM; on human HER2 (23-652) [3] it was below 0.0001 µM; on human HER4, above 6 µM; in data set [5], above 6 µM; at mouse HER2 (23-653) [6], 0.0001 µM. The IC50 on human HER2 (23-652) [4] was below 0.0001 µM; at mouse HER2 (23-653) [7] it was 0.0002 µM.

With `CC(=O)NCCCC[C@H]1C(=O)N[C@@H](Cc2c[nH]c3ccc(O)cc23)C(=O)N[C@@H](Cc2c[nH]c3ccccc23)C(=O)N[C@@H](C2CC2)C(=O)N(C)[C@H](C(=O)N(C)[C@@H](Cc2ccc(F)cc2)C(=O)N[C@@H](CCCCNC(=O)CN2CCN(CC(=O)O)CCN(CC(=O)O)CCN(CC(=O)O)CC2)C(N)=O)CNC(=O)CCC[C@H](NC(C)=O)C(=O)N[C@@H](Cc2ccc(O)cc2)C(=O)N[C@@H](CO)C(=O)N(C)[C@@H](CCc2ccccc2)C(=O)N1C` [Example B1], the Kd is above 6 µM on human EGFR; above 6 µM at human HER3; below 0.0001 µM on human HER2 (23-652) [3]; above 6 µM on human HER4; above 6 µM in data set [5]; below 0.0001 µM at mouse HER2 (23-653) [6]. Further, the IC50 on human HER2 (23-652) [4] and at mouse HER2 (23-653) [7] was below 0.0001 µM in each case.

The molecule Ac-[Aad]YS[NMehPhe][MeKAc][Trp(5-OH)]A[CproG][NMeDap][NMePhe(4-F)]K(DOTA)-NH2 (lactam 1-9; reading uncertain; also: DOTA complexed with 175Lu) [Example C32] came in with an IC50 in data set [8] of 9.81 µM.

On to Ac-EY[Dap](DOTA)[NMehPhe][NMeK](Ac)[Trp(5-OH)]W[aThr][NMeDap][NMePhe(4-F)]K(X4)-NH2 (lactam 1-9; also: DOTA complexed with 175Lu) [Example C26], for which the dissociation constant (Kd) in [9] is 0.011 µM; in data set [10], 0.0051 µM. Also, the IC50 in data set [11] was determined as 0.017 µM; in data set [12], 0.0042 µM.

The molecule H-CYS[NMehPhe][NMeS][Trp(5-OH)]W[cProG][NMeC][NMePhe(4-F)]-NH2 (disulfide 1-9) [Example A54] had a Kd in data set [13] of 5.3 µM.
